Measurements: ChEMBL document CHEMBL3871307, “Discovery of Chromane Propionic Acid Analogues as Selective Agonists of GPR120 with in Vivo Activity in Rodents” (ACS Med Chem Lett, 2017)
pEC50: −log10 of the molar value. Activity calls are given as the source filed them. The calls are words filed in the database; no cut-off is given here.

Assays:
[1] = molecular target: T1, Free fatty acid receptor 4 (Homo sapiens) (UniProt Q5NUL3); assay: Agonist activity at human GPR120 short isoform expressed in CHOK1 cells assessed as increase in IP1 accumulation at 10 uM after 60 mins by HTRF assay; assay type: functional, cell-based; conditions: CHO-K1
T1 sequence (whole entry): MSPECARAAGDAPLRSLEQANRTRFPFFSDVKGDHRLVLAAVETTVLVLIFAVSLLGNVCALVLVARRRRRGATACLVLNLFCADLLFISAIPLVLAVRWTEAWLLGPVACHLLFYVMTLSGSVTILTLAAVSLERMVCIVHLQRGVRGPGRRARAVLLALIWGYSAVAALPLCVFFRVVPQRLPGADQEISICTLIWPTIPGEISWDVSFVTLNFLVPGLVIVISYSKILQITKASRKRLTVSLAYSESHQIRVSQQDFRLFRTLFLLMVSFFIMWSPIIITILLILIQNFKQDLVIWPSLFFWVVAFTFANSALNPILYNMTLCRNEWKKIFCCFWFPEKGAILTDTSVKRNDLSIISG

[2] = molecular target: Free fatty acid receptor 1 (Homo sapiens, UniProt O14842); assay: Agonist activity at human GPR40 expressed in HEK293 cells assessed as increase in IP1 accumulation after 60 mins by HTRF assay; assay type: functional, cell-based
Chain of Free fatty acid receptor 1 (Homo sapiens, UniProt O14842) (O14842 whole entry, canonical isoform): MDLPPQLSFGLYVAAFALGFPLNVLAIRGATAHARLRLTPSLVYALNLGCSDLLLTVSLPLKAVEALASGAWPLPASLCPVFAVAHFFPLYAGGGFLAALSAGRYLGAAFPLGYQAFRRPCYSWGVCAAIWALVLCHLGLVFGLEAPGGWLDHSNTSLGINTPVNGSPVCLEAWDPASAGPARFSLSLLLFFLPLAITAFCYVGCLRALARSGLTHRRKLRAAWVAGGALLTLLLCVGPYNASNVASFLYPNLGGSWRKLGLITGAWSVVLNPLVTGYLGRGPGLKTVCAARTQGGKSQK

[3] = molecular target: T2, Free fatty acid receptor 4 (Homo sapiens, UniProt Q5NUL3); assay: Agonist activity at human GPR120 short isoform expressed in CHOK1 cells assessed as increase in IP1 accumulation after 60 mins by HTRF assay; assay type: functional, cell-based, CHO-K1
T2 sequence (Q5NUL3 whole entry): T1 sequence (whole entry)

[4] = molecular target: T2, Free fatty acid receptor 4; assay: Agonist activity at human GPR120 short isoform expressed in CHOK1 cells assessed as beta-arrestin recruitment after 90 mins by luminescence assay; assay type: cell-based, CHO-K1
[5] = Protein binding in rat plasma at 0.1 mg/kg administered as iv casette dose by LC/MS/MS analysis; assay type: ADME, organism-based; conditions: read-out: PPB (converted)
[6] = Clearance in rat plasma at 0.1 mg/kg administered as iv casette dose by LC/MS/MS analysis; assay type: ADME, organism-based
[7] = Terminal half life in rat plasma at 0.1 mg/kg administered as iv casette dose by LC/MS/MS analysis; assay type: ADME, organism-based; conditions: read-out: beta t1/2 (converted)
[8] = Intrinsic clearance in rat plasma at 0.1 mg/kg administered as iv casette dose by LC/MS/MS analysis; assay type: ADME, organism-based; conditions: in vivo
[9] = Volume of distribution at steady state in rat plasma at 0.1 mg/kg administered as iv casette dose by LC/MS/MS analysis; assay type: ADME, organism-based; conditions: read-out: Vdss
[10] = Plasma concentration in GPR120 knockout C57BL/6 transverse aortic constriction mouse at 150 mg/kg, po measured at 3 hrs; assay type: ADME, organism-based; conditions: C57BL/6, mouse
[11] = molecular target: T3, Free fatty acid receptor 4 (Mus musculus, UniProt Q7TMA4); assay: Agonist activity at mouse GPR120 expressed in human U2OS cells assessed as beta-arrestin recruitment after 90 mins by luminescence assay; assay type: cell-based
T3 sequence (Q7TMA4 whole entry): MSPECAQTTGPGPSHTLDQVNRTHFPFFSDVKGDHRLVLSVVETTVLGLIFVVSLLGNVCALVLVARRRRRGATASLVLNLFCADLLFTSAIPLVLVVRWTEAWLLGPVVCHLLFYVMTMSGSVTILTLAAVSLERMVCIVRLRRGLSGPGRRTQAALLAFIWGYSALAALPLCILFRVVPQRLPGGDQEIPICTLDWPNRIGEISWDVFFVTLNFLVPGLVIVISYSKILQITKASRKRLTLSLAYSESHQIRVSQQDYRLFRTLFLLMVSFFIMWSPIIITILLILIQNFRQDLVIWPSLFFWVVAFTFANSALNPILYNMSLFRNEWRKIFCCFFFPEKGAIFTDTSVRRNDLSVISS

[12] = molecular target: Free fatty acid receptor 1 (Mus musculus, UniProt Q76JU9); assay: Agonist activity at mouse GPR40 assessed as increase in IP1 accumulation after 60 mins by HTRF assay; assay type: functional
Chain of Free fatty acid receptor 1 (Mus musculus, UniProt Q76JU9) (Q76JU9 whole entry): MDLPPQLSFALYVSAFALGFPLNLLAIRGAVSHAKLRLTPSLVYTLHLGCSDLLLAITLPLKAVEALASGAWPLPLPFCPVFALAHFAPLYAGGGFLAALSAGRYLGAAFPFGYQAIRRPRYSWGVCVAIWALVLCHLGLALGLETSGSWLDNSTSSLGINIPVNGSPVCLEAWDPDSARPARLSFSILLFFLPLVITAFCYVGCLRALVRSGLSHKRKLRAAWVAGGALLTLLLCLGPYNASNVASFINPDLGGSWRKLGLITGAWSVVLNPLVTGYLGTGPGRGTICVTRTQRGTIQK

[13] = Plasma concentration in wild type C57BL/6 transverse aortic constriction mouse harboring GPR120 at 150 mg/kg, po measured at 3 hrs; assay type: ADME, organism-based; conditions: C57BL/6, mouse
[14] = molecular target: T3, Free fatty acid receptor 4; assay: (§1) Agonist activity at mouse GPR120 expressed in CHOK1 cells assessed as increase in IP1 accumulation after 60 mins by HTRF assay; assay type: functional, cell-based, CHO-K1
Mus musculus [15] = assay: In vivo agonist activity at GPR120 in wild type C57BL/6 transverse aortic constriction mouse assessed as glucose lowering effect at 150 mg/kg, po via gavage pretreated for 60 mins followed by dextrose challenge measured up to 120 mins post glucose challenge by OGTT; assay type: functional, organism-based
[16] = molecular target: T4, Free fatty acid receptor 4 (Mus musculus) (UniProt Q7TMA4); assay: as §1; assay type: functional, cell-based; conditions: CHO-K1
T4 sequence (whole entry): T3 sequence (Q7TMA4 whole entry)

Mus musculus [17] = assay: Glucose lowering effect in C57BL/6 transverse aortic constriction mouse assessed as reduction in blood glucose at 100 mg/kg, po pretreated for 60 mins as single dose via gavage followed by dextrose challenge measured up to 120 mins post glucose challenge by OGTT; assay type: functional, organism-based
[18] = Plasma concentration in C57BL/6 transverse aortic constriction mouse at 100 mg/kg, po via gavage measured at 3 hrs; assay type: ADME, organism-based; conditions: C57BL/6, mouse
Mus musculus [19] = assay: Glucose lowering effect in C57BL/6 transverse aortic constriction mouse assessed as reduction in blood glucose at 30 mg/kg, po pretreated for 60 mins as single dose via gavage followed by dextrose challenge measured up to 120 mins post glucose challenge by OGTT; assay type: functional, organism-based
[20] = Plasma concentration in C57BL/6 transverse aortic constriction mouse at 30 mg/kg, po via gavage measured at 3 hrs; assay type: ADME, organism-based; conditions: C57BL/6, mouse

| Compound | Activity [1] [%] | pEC50 [2] | pEC50 [3] | pEC50 [4] | further results |
| --- | --- | --- | --- | --- | --- |
| COc1cc(OC2CC2)cc(-c2ccc3c(c2)CC[C@H](CCc2nnn[nH]2)O3)c1F | > 50 | < 5.00 | 7.29 | 7.49 | – |
| COc1cc(OC2CCC2)nc(-c2ccc3c(c2)CC[C@H](CCC(=O)O)O3)c1F | > 50 | < 5.00 | 7.82 | 8.21 | – |
| COc1cc(Oc2ncc(C)s2)cc(-c2ccc3c(c2)CC[C@H](CCC(=O)O)O3)c1F | > 50 | < 5.00 | 7.43 | 7.89 | fraction unbound [5]: 0.0007; clearance [6]: 1.6 mL/min/kg; half-life [7]: 1.2 h; CL [8]: 3600 mL/min/kg; Vd [9]: 0.15 L/kg |
| COc1cc(O[C@H]2C[C@H](OC)C2)cc(-c2ccc3c(c2)CC[C@H](CCc2nnn[nH]2)O3)c1F | > 50 | < 5.00 | 7.28 | 7.37 | – |
| Fc1ccc(OC(F)(F)F)cc1-c1ccc2c(c1)CC[C@H](CCc1nnn[nH]1)O2 | 17 | < 5.00 | 6.48 | 6.05 | – |
| COc1cc(OC2CCC2)nc(-c2ccc3c(c2)CC[C@H]([C@@H]2C[C@H]2C(=O)O)O3)c1F | > 50 | < 5.00 | 7.74 | 8.11 | – |
| O=C(O)[C@@H]1C[C@H]1[C@H]1CCc2cc(-c3cc(OC(F)(F)F)ccc3F)ccc2O1 | > 50 | < 5.00 | 7.16 | 7.48 | – |
| O=C(O)CC[C@H]1CCc2cc(-c3cc(OC4CCC4)cc(F)c3F)ccc2O1 | > 50 | < 5.00 | 7.68 | 7.89 | fraction unbound [5]: 0.0007; clearance [6]: 5.4 mL/min/kg; half-life [7]: 1.3 h; CL [8]: 8700 mL/min/kg; Vd [9]: 0.45 L/kg |
| O=C(O)CC[C@H]1CCc2cc(-c3cc(OC4CCC4)cc(Cl)c3F)ccc2O1 | > 50 | < 5.00 | 7.40 | 8.08 | – |
| COc1cc(OC2CCC2)cc(-c2ccc3c(c2)CC[C@H](CCC(=O)O)O3)c1F | > 50 | < 5.00 | 7.82 | 8.05 | – |
| COc1cc(OC(F)(F)F)cc(-c2ccc3c(c2)CC[C@H](CCc2nnn[nH]2)O3)c1F | 45 | < 5.00 | 6.89 | 6.82 | – |
| O=C(O)CC[C@@H]1CCc2cc(-c3cc(OC(F)(F)F)ccc3F)ccc2O1 | > 50 | < 5.00 | 6.74 | 7.38 | – |
| O=C(O)CC[C@H]1CCc2cc(-c3cc(OC(F)(F)F)cc(Cl)c3F)ccc2O1 | > 50 | 5.66 | 7.14 | 7.77 | – |
| Fc1ccc(OC2CCC2)cc1-c1ccc2c(c1)CC[C@H](CCc1nnn[nH]1)O2 | 44 | < 5.00 | 6.66 | 7.08 | Activity [16]: Active; Activity (Mus musculus [17]): Active; concentration at 3 h [18]: 40.6 µM |
| CO[C@H]1C[C@H](Oc2cc(F)c(F)c(-c3ccc4c(c3)CC[C@H]([C@@H]3C[C@H]3C(=O)O)O4)c2)C1 | > 50 | < 5.00 | 7.35 | 7.77 | Activity (Mus musculus [19]): Active; concentration at 3 h [20]: 37.4 µM |
| O=C(O)CC[C@H]1CCc2cc(-c3cc(OC(F)(F)F)ccc3F)ccc2O1 | > 50 | 5.68 | 6.77 | 7.77 | fraction unbound [5]: 0.0016; clearance [6]: 9.5 mL/min/kg; half-life [7]: 1.3 h; CL [8]: 10500 mL/min/kg; Vd [9]: 0.64 L/kg |
| O=C(O)[C@H]1C[C@@H]1[C@H]1CCc2cc(-c3cc(OC(F)(F)F)ccc3F)ccc2O1 | > 50 | < 5.00 | 6.49 | 6.89 | – |

More lines, main results first:

| Activity [1] [%] | pEC50 [2] | pEC50 [3] | pEC50 [4] | Compound | further results |
| --- | --- | --- | --- | --- | --- |
| > 50 | < 5.00 | 7.10 | 6.85 | O=C(O)CC[C@H]1CCc2cc(-c3cc(OC4CCC4)cnc3F)ccc2O1 | – |
| > 50 | < 5.00 | 7.85 | 8.30 | COc1cc(O[C@H]2C[C@H](OC)C2)nc(-c2ccc3c(c2)CC[C@H](CCC(=O)O)O3)c1F | fraction unbound [5]: 0.0032; concentration at 3 h [10]: 27.6 µM; pEC50 [11]: 8.34; pEC50 [12]: < 5.00; concentration at 3 h [13]: 33.5 µM; pEC50 [14]: 8.25; Activity (Mus musculus [15]): Active; clearance [6]: 3.4 mL/min/kg; half-life [7]: 2.4 h; CL [8]: 760 mL/min/kg; Vd [9]: 0.49 L/kg |
| > 50 | < 5.00 | 7.26 | 7.11 | COc1cc(O[C@H]2C[C@H](OC)C2)cc(-c2ccc3c(c2)CC[C@H]([C@@H]2C[C@H]2C(=O)O)O3)c1F | – |
| > 50 | < 5.00 | 7.60 | 8.10 | COc1cc(OC2CCC2)cc(-c2ccc3c(c2)CC[C@H]([C@@H]2C[C@H]2C(=O)O)O3)c1F | – |
| > 50 | < 5.00 | 7.52 | 7.68 | O=C(O)CC[C@H]1CCc2cc(-c3nc(OC4CCC4)ccc3F)ccc2O1 | fraction unbound [5]: 0.0023; clearance [6]: 9.1 mL/min/kg; half-life [7]: 0.74 h; CL [8]: 4500 mL/min/kg; Vd [9]: 0.23 L/kg |
| > 50 | 5.44 | 7.55 | 8.00 | O=C(O)CC[C@H]1CCc2cc(-c3cc(OC4CCC4)ccc3F)ccc2O1 | – |
| 24 | < 5.00 | 6.62 | 6.77 | CO[C@H]1C[C@H](Oc2cc(F)c(F)c(-c3ccc4c(c3)CC[C@H](CCc3nnn[nH]3)O4)c2)C1 | – |
| > 50 | 5.36 | 7.60 | 7.96 | COc1cc(OC(F)(F)F)cc(-c2ccc3c(c2)CC[C@H](CCC(=O)O)O3)c1F | – |
| > 50 | 5.70 | 6.60 | 6.64 | O=C(O)CC[C@H]1CCc2cc(-c3cc(OC4CCC4)ncc3F)ccc2O1 | – |
| > 50 | < 5.00 | 7.85 | 8.25 | Cc1cnc(Oc2cc(Cl)c(F)c(-c3ccc4c(c3)CC[C@H](CCC(=O)O)O4)c2)s1 | fraction unbound [5]: 0.0003; clearance [6]: 1.6 mL/min/kg; half-life [7]: 0.93 h; CL [8]: 6200 mL/min/kg; Vd [9]: 0.14 L/kg |
